Where two headings read alike, the source gives them in different places.
Experiments:
[1] = tested on: H1 human embryonic stem cells; assay: Analog screening with GDF-8 and growth factor/agonist pool (Example 8, Tables 7 and 8); type: cell-based; set-up: Cell Number, % of positive control / Sox17 Expression, % of positive control: tested at 2.5 µM
Protocol: Briefly, clusters of H1 human embryonic stem cells were grown on reduced growth factor […]™ (Invitrogen; Cat #356231)-coated tissue culture plastic. Cells were passaged using collagenase (Invitrogen; Cat #17104-019) treatment and gentle scraping, washed to remove residual enzyme, and plated with even dispersal at a ratio of 1:1 (surface area) on reduced growth factor […]™-coated 96-well black plates (Packard ViewPlates; PerkinElmer; Cat #6005182) using volumes of 100 μl/well. Cells were allowed to attach as clusters and then recover log phase growth over a 1 to 3 day period, feeding daily with MEF conditioned medium supplemented with 8 ng/ml bFGF (R&D Systems; Cat #233-FB). Plates were maintained at 37° C., 5% CO2 in a humidified box throughout the duration of assay. Growth factors purchased from R&D Systems were EGF (Cat #236-EG), FGF4 (Cat #235-F4), PDGF-A (Cat #221-AA), PDGF-D (Cat #1159-SB), PDGF-A/B (Cat #222-AB). […] Screening was conducted using a library of compounds that were made available as 5 mM stocks in 96-well plate format, solubilized in 100% DMSO (Sigma; Cat #D2650) and stored at −80° C. The compounds were further diluted to an intermediate concentration of 0.2 mM in 50 mM HEPES (Invitrogen; Cat #15630-080), 20% DMSO and stored at 4° C. Test conditions were performed in single wells, feeding on alternate days over a four-day assay period. Primary screening assays were initiated by aspirating culture medium from each well followed by three washes in PBS (Invitrogen; Cat #14190) to remove residual growth factors and serum. On the first day of assay, test volumes of 200 μl per well were added back containing DMEM:F12 base medium (Invitrogen; Cat #11330-032) supplemented with 0.5% FCS (HyClone; […] Cat #1324-WN) plus 2.5 μM compound. All remaining growth factors were tested at a final assay concentration of 50 ng/ml (EGF, FGF4, PDGF-A, PDGF-A/B, VEGF) with the exception of GDF-8 tested at 25 ng/ml. […] Cat #120-14). […] All remaining growth factors were tested at a final assay concentration of 50 ng/ml (EGF, FGF4, PDGF-A, PDGF-A/B, VEGF) with the exception of GDF-8 tested at 25 ng/ml. […] Cat #120-14). Negative control samples contained DMEM:F12 base medium supplemented with 2% FCS. […] At the conclusion of four-days of culture, assay plates were washed twice with PBS (Invitrogen; Cat #14190), fixed with 4% paraformaldehyde (Alexis Biochemical; Cat #ALX-350-011) at room temperature for 20 minutes, then washed three times with PBS and permeabilized with 0.5% Triton X-100 (Sigma; Cat #T8760-2) for 20 minutes at room temperature. Cells were washed again three times with PBS and blocked with 4% chicken serum (Invitrogen; Cat #16110082) in PBS for 30 minutes at room temperature. Primary antibody (goat anti-human SOX17; R&D Systems; Cat #AF1924) was diluted 1:100 in 4% chicken serum and added to each well for one hour at room temperature. Alexa Fluor 488 conjugated secondary antibody (chicken anti-goat IgG; Molecular Probes; Cat #AZ1467) was diluted 1:200 in PBS and added to each sample well after washing three times with PBS. To counterstain nuclei, 4 μg/ml Hoechst 33342 (Invitrogen; Cat #H3570) was added for ten minutes at room temperature. Plates were washed once with PBS and left in 100 μl/well PBS for imaging. Imaging was performed using an IN Cell Analyzer 1000 (GE Healthcare) utilizing the 51008bs dichroic for cells stained with Hoechst 33342 and Alexa Fluor 488. Exposure times were optimized from positive control wells and from untreated negative control wells stained with secondary antibody alone. Images from 15 fields per well were acquired to compensate for any cell loss during the bioassay and subsequent staining procedures. […] Segmentation for the nuclei was determined based on gray-scale levels (baseline range 100-300) and nuclear size. Averages and standard deviations were calculated for each replicate data set. […]

[2] = tested on: H1 human embryonic stem cells; assay: Secondary assay: compound combined with individual growth factors or small molecules, no activin A (Example 5, Table 4); type: cell-based
Protocol: Clusters of H1 human embryonic stem cells were grown on reduced growth factor […]™ (Invitrogen; Cat #356231)-coated tissue culture plastic. Cells were passaged using collagenase (Invitrogen; Cat #Cat #17104-019) treatment and gentle scraping, washed to remove residual enzyme, and plated with even dispersal at a ratio of 1:1 (surface area) on reduced growth factor […]™-coated 96-well black plates (Packard ViewPlates; PerkinElmer; Cat #6005182) using volumes of 100 μl/well. Cells were allowed to attach as clusters and then recover log phase growth over a 1 to 3 day period, feeding daily with MEF conditioned medium supplemented with 8 ng/ml bFGF (R&D Systems; Cat #233-FB). Plates were maintained at 37° C., 5% CO2 in a humidified box throughout the duration of assay.
Other agents tested were purchased as follows: BMP-7 (Sigma; Cat #B1434), LY294002 (Cayman; Cat 70920), PD98059, U0126, U0124 (EMD Biosciences; Cat #453710), muscimol (Tocris; Cat #0289), biuculline (Tocris; Cat #0130), sodium butyrate (Sigma; Cat #B5887). All growth factors were solubilized in PBS with 0.1% BSA (Sigma; Cat #A7888) and stored frozen at −80° C. Small molecules were solubilized in 100% DMSO (Sigma; Cat #D2650) and stored frozen at −80° C. The compounds were available as 5 mM stocks in 96-well plate format, solubilized in 100% DMSO and stored at −80° C. The compounds of the present invention were further diluted to an intermediate concentration of 0.2 mM in 50 mM HEPES (Invitrogen; Cat #15630-080), 20% DMSO and stored at 4° C. All growth factors and inhibitors were prepared in a deep well, 96-well polypropylene plate, diluted to 5× intermediate stocks in DMEM:F12 base medium at the beginning of assay and stored at 4° C.
A secondary screening assay was conducted, testing in triplicate and feeding on alternate days over the four-day assay timeframe. Assays were initiated by aspirating culture medium from each well followed by three washes in PBS to remove residual growth factors and serum. Test volumes of 80 μl per well were added back containing DMEM:F12 base medium (Invitrogen; Cat #11330-032) supplemented with 0.625% FCS (HyClone; Cat #SH30070.03), 25 ng/ml Wnt3a (R&D Systems), and 3.125 μM compound plus 20 μl 5× stock of growth factor or small molecule to yield a final concentration of 0.5% FCS, 20 ng/ml Wnt3a, and 2.5 μM compound. […] Final assay concentrations of small molecules tested were as follows: muscimol (20 μM), PD98059 (1 μM), LY294002 (2.5 μM), 00124 (1 μM), U0126 (1 μM), sodium butyrate (0.5 mM). Positive control wells (100 μl/well) contained the same base medium supplemented with 0.5% FCS, 20 ng/ml Wnt3a and 100 ng/ml activin A. Negative control wells (100 μl/well) contained the same base medium with 0.5% FCS and 20 ng/ml Wnt3a, omitting activin A.
On day 3, wells were aspirated and fed with 80 μl DMEM:F12 base medium supplemented with 2.5% FCS (HyClone) and 3.125 μM cyclic aniline-pyridinotriazine compound plus 20 μl 5× stock of growth factors or small molecules per well to yield a final concentration of 2% FCS and 2.5 μM compound (omitting Wnt3a) and as denoted on day one for all remaining growth factors or small molecules. Positive control wells (100 μl/well) contained the same base medium supplemented with 2% FCS and 100 ng/ml activin A, omitting Wnt3a. Negative control wells (100 μl/well) contained the same base medium with 2% FCS, omitting both activin A and Wnt3a.
At the conclusion of four-days of culture, assay plates were washed twice with PBS, fixed with 4% paraformaldehyde (Alexis Biochemical; Cat #ALX-350-011) at room temperature for 20 minutes, then washed three times with PBS and permeabilized with 0.5% Triton X-100 (Sigma; Cat #T8760-2) for 20 minutes at room temperature. Cells were washed again three times with PBS and blocked with 4% chicken serum (Invitrogen; Cat #16110082) in PBS for 30 minutes at room temperature.

[3] = EGF, FGF, PDGF-A, VEGF, PDGF-D, muscimol, GDF8
[4] = Plate 2, compound + EGF, FGF, PDGF-A, VEGF, PDGF-D, muscimol, GDF8
[5] = Plate 2, compound + EGF, FGF, PDGF-A, VEGF, PDGF-D, muscimol, GDF8, positive control Activin A/Wnt3a
[6] = Plate 1, compound + EGF, FGF, PDGF-A, VEGF, PDGF-D, muscimol, GDF8
[7] = Plate 1, compound + EGF, FGF, PDGF-A, VEGF, PDGF-D, muscimol, GDF8, positive control Activin A/Wnt3a
[8] = Table 8: hits with greater than 25% activity of the positive control, with GDF-8 and growth factors/agonists
[9] = agent combined with 2.5 μM compound and Wnt3a, no activin A

Molecule: CCN1CC(=O)NCCCc2cccc(c2)-c2ncnc(n2)Nc2cc(Cl)cc(c2)C1 [Compound 16, 10-Chloro-14-ethyl-3,5,7,14,17,27-hexaazatetracyclo[19.3.1.1˜2,6˜1˜8,12˜]heptacosa-1(25), 2(27), 3,5,8(26), 9,11,21,23-nonaen-16-one]
- Cell Number, % of positive control [1, 3]: 62.0%
- Cell Number, Average Total Cell Number [1, 3]: 8303
- Sox17 Expression, % of positive control [1, 3]: 36.7%
- Sox17 Expression, Average Total Intensity [1, 3]: 9.20E+07
- Cell Number, Average Total Cell Number [1, 4]: 9064
- Sox17 Expression, Average Total Intensity [1, 4]: 1.48E+08
- Cell Number, % of positive control [1, 5]: 57.3 % of positive control
- Sox17 Expression, % of positive control [1, 5]: 51.8 % of positive control

Molecule: O=C1NCCCc2cncc(c2)-c2ncnc(n2)Nc2cc(Cl)cc(c2)CN2CCC[C@@H]12 [Compound 36, (18S)-10-Chloro-3,5,7,14,20,26,30-heptaazapentacyclo[22.3.1.1˜2,6˜0.1˜8,12˜0.0˜14,18˜]triaconta-1(28), 2(30), 3,5,8(29), 9,11,24,26-nonaen-19-one]
- Cell Number, Average Total Cell Number [1, 6]: 7964
- Sox17 Expression, Average Total Intensity [1, 6]: 9.47E+07
- Cell Number, % of positive control [1, 7]: 59.5 % of positive control
- Sox17 Expression, % of positive control [1, 7]: 37.8 % of positive control
- Cell Number, % of positive control [1, 8]: 59.5 % of positive control
- Sox17 Expression, % of positive control [1, 8]: 37.8 % of positive control
- Sox17 Expression, Average Total Intensity [1, 8]: 9.47E+07

Molecule: O=C1NCCCc2cncc(c2)-c2ncnc(n2)Nc2cc(Cl)cc(c2)CN2CCCC1C2 (centres unmarked) [Compound 38, 5-Chloro-1,8,10,12,16,22,30-heptaazapentacyclo[22.2.2.1˜3,7˜0.1˜9,13˜0.1˜14,18˜]hentriaconta-3(31), 4,6,9(30), 10,12,14(29), 15,17-nonaen-23-one]
- Cell Number, Average Total Cell Number [1, 4]: 9650
- Sox17 Expression, Average Total Intensity [1, 4]: 2.46E+08
- Cell Number, % of positive control [1, 5]: 61.0 % of positive control
- Sox17 Expression, % of positive control [1, 5]: 86.2 % of positive control
- Cell Number, % of positive control [1, 8]: 61.0 % of positive control
- Sox17 Expression, % of positive control [1, 8]: 86.2 % of positive control
- Sox17 Expression, Average Total Intensity [1, 8]: 2.46E+08

Molecule: CS/C(N)=C(C#N)/C(C#N)=C(\N)SC [Compound U0124, U0124, reference compound]
- effect on SOX17 expression [2, 9]: inhibited or had negligible effects on SOX17 expression

Molecule: N#CC(=C(/N)Sc1ccccc1N)/C(C#N)=C(\N)Sc1ccccc1N [Compound U0126, U0126, reference compound]
- effect on SOX17 expression [2]: inhibited or had negligible effects on SOX17 expression

Molecule: COc1cccc(-c2cc(=O)c3ccccc3o2)c1N [PD98059, reference compound]
- effect on SOX17 expression [2, 9]: inhibited or had negligible effects on SOX17 expression

Molecule: NCc1cc(=O)[nH]o1 [muscimol, reference compound]
- effect on SOX17 expression [2, 9]: modest increase in SOX17 expression

Molecule: CCCC(=O)[O-].[Na+] [sodium butyrate, reference compound]
- effect on SOX17 expression [2, 9]: inhibited or had negligible effects on SOX17 expression

Molecule: VEGF
- increase in SOX17 expression (% of the activin A/Wnt3a control) ([2]; growth factor 50 ng/ml combined with 2.5 μM compound and Wnt3a, no activin A): 18%

B1: BMP-6: member of the BMP family, R&D Systems (protein, UniProt P22004 375-513, looked up)
Bone morphogenetic protein 6: SASSRRRQQSRNRSTQSQDVARVSSASDYNSSELKTACRKHELYVSFQDLGWQDWIIAPKGYAANYCDGECSFPLNAHMNATNHAIVQTLVHLMNPEYVPKPCCAPTKLNAISVLYFDDNSNVILKKYRNMVVRACGCH
- effect on SOX17 expression [2, 9]: inhibited or had negligible effects on SOX17 expression

— patent US9593305B2, “Differentiation of pluripotent stem cells” (Janssen Biotech, Inc., priority 2008, dated 2017)
